Key:
[1] = system: human B cells; conditions: cited from earlier work
[2] = system: ApoE-/- mice; assay: LDL cholesterol in ApoE-/- mice; type: in vivo, mouse; conditions: 1 mg/kg IV once a week for 4 weeks
Method: In this study, six ApoE−/− mice received a normal chow diet from 0 to 20 weeks of age. At 20 weeks of age, three mice were randomly assigned to receive dose of 1 mg/kg of KGYY6 (6-mer-SEQ ID NO:29) by IV tail injection, once a week for a period of 4 weeks. Control mice received vehicle only.

[3] = system: ApoE-/- mice; assay: Atherosclerotic changes in high fat diet ApoE-/- mice (Sudan IV en-face, Paigen method, trichrome); type: in vivo, mouse
Method: ApoE−/− mice were fed a high fat diet for 16 weeks. Mice were randomly assigned to receive dose of 1 mg/kg of KGYY6 (6-mer-SEQ ID NO:29) by IV tail injection, once a week for a period of 4 weeks. Control mice received vehicle only. Atherosclerosis was investigated by several methods. […] FIG. 28A is an image of KGYY6 treated aortic en-face Sudan IV staining and FIG. 28B is an image of control (untreated) aortic en-face Sudan staining.
Further, measurement of plaque area and morphology was performed using the Paigen method. This method obtains sequential 5 μm aortic cross sections from the aortic root beginning at the valve leaflets into the ascending aorta. At 50 μm intervals, slides are stained after which the area of atherosclerotic lesion is measured. Individual plaque area measurements are plotted against the micrometer intervals and a curve is established, with the area under the curve (AUC) giving the total volume of plaque.

[4] = system: ApoE-/- mice; assay: Glucose tolerance testing and serum insulin in high fat diet ApoE-/- mice; type: in vivo, mouse
Text: One example of a disease that is particularly amenable to treatment using a peptide of the present developments may be type 2 diabetes. In type 2 diabetes, glucose tolerance is reduced, insulin sensitivity is decreased, and plasma insulin levels are increased. Consequently, control of inflammatory cells and cell signaling via CD40-CD154 interaction may be able to be used to control, modulate, reduce and/or reverse type 2 diabetes symptoms that are characterized as by glucose intolerance, insulin resistance, and increased plasma insulin levels. Several murine models of T2D and/or atherosclerosis have been developed. For initial studies, ApoE−/− mice were selected due to their ability to develop type 2 diabetes from a high fat diet. Glucose tolerance and insulin testing were performed on all of the mice. The mice were administered the 6-mer peptide (SEQ ID NO:29) at a rate of 1 mg/kg weekly via I.V, injection and monitored. […] Thus, one embodiment of the present developments is a method to prevent type 2 diabetes in an individual at risk for developing type 2 diabetes, the method comprising administering to the individual a peptide to selectively bind to a CD40 expressing cell. In such an embodiment, the peptide may be selected from SEQ ID NOS: 3-9 and 24-30.
ApoE−/− mice were fed a 60% high fat diet (research diet) for 1 week. A select population of mice were then injected with 6-mer peptide at a dose of 1 mg/kg and others were untreated and tracked as controls. Glucose tolerance testing (GTT) was performed by fasting 6 hours, followed by intraperitoneal injection of 1 g/kg body weight glucose in water. Both blood glucose and blood serum insulin were measured at 0, 15 minutes, 30 minutes, 60 minutes, and 2 hours.

[5] = system: GLUT4; assay: Western analysis of GLUT4 in adipose and muscle tissue of treated mice; type: in vivo, mouse; conditions: treated versus untreated mice
Text: GLUT4 is responsible for glucose uptake in response to insulin and known to have reduced expression in type 2 diabetes.

[6] = system: Th40 cells; assay: Cytokine production of splenic lymphocytes (Th40 cells) treated in vitro, flow cytometry; type: cell-based, mouse; conditions: splenic lymphocytes of ApoE-/- and C57BL/6 mice, 24 hours in vitro, varying concentrations
Method: Spleens from ApoE mice and C57BL/6 mice were processed for lymphocytes. ApoE−/− and C57BL/6 mice were fed a 60% high fat diet (research diet) for 1 week. Splenic lymphocytes were treated with 6-mer in vitro for 24 hours. Cells were placed in media overnight in the presence of varying concentrations of 6-mer peptides. The following morning. Brefeldin A was administered for 4 hours. All cells were stained for CD3, CD4, CD40 (Th40 cells) and measured by use of flow cytometry for their production of IL2, INFγ, and IL17a.

[7] = system: NOD mice; assay: Development of diabetes in NOD mice treated with CD154 peptides; type: in vivo, mouse; conditions: 25 ug (1 mg/kg) tail vein weekly from 6 weeks of age
Method: (§1) Peptides were designed based on the amino acid sequence of mouse CD154 protein (SEQ ID NO:1) in the SwissPro database. […] Weekly after the initial injection, another 25 ug of peptide (or 100 ul of saline in the case of the Control mice) was injected into the tail vein. At 10 weeks of age, mice were monitored for diabetes, as indicated by a blood glucose level greater than 250 mg/dL for three consecutive days. During this time, blood was also taken from the tail vein, or by sub-mandibular venal puncture, and the level of CD4+ and CD8+ cells determined by flow cytometry using antibodies for CD4 protein and CD8 protein.

[8] = system: NOD mice; assay: CD4/CD8 ratio in blood of treated NOD mice by flow cytometry; type: in vivo, mouse; conditions: 25 ug (1 mg/kg) tail vein weekly
Method: as §1

[9] = system: NOD mice; assay: Reversal of hyperglycemia in newly diabetic NOD mice; type: in vivo, mouse
Method: Six mice from Example 1 that were not treated were allowed to subsequently develop diabetes. These mice were injected intravenously with 100 ug of the 15-mer peptide. These mice were then given weekly injections of the 15-mer peptide into their tail veins, and their blood glucose levels monitored twice-weekly. The 15-mer peptide was administered for a total of ten weeks, after which the treatment was stopped.
(§2) At the onset of diabetes, six NOD mice were injected with […] of the 15-mer peptide, resulting in the reversal of hyperglycemia in 80% of the recipients. Six weeks after reversal of hyperglycemia, mice were sacrificed, and the pancreas removed for analysis. The pancreas was fixed, sectioned and then stained using an aldehyde/fuschsin stain that allows detection of insulin granules. Granulation of the tissue was scored as follows: 4=completely granulated; 3=75% of islet granulated; 2=50% of islet granulated, and peri-insulitis; 1=25% of islet granulated; 0=no insulin granules detected.

[10] = system: CD40+ T-cells; assay: Binding of FITC-labeled 15-mer peptide to Th40 cells, flow cytometry; parameters: species or system mouse; conditions: lymphocytes of 9 week old NOD mice
Method: Total lymphocytes were isolated from 9 week old NOD mice. The lymphocytes were incubated with anti-CD4, anti-CD8, anti-CD40 and an FITC-labeled 15-mer peptide, and then analyzed by flow cytometry. Cells were gated for CD4 (both CD4hi and CD4lo populations were included) and CD40 versus the 15-mer peptide.

[11] = system: B cells; assay: Binding of FITC-labeled 15-mer peptide to B cells, flow cytometry; parameters: species or system mouse; conditions: spleen B cells of NOD mice, 90% CD40 positive
Method: B cells were isolated from the spleens of NOD mice. Sorted MHC-II+ cells were purified from total lymphocytes. Cells were stained with FITC-labeled 15 mer peptide, anti-CD40, and B cell markers CD19 and CD21. MHC-II+ cells were gated for CD19+ and CD21+ and then 15-mer peptide versus CD40 antibody was measured.

[12] = system: blood cells; assay: Binding of biotin-conjugated 15-mer peptide to whole blood cells, HRP-avidin absorbance at 405 nm; parameters: species or system human; conditions: 1 ml whole blood
Method: 1 ml of whole blood was obtained from each individual and incubated with biotin-conjugated, 15-mer peptide. The cells were then exposed to horseradish peroxidase (HRP)-avidin, washed and the absorbance at 405 nm determined using a spectrophotometer.

[13] = system: NOD mice; assay: Insulin granulation of the pancreas in NOD mice, aldehyde/fuschsin stain; type: in vivo, mouse; conditions: six weeks after reversal of hyperglycemia; versus irrelevant peptide
Method: as §2

[14] = system: ApoE deficient mice; assay: Atherosclerosis in ApoE deficient mice, lesser curvature of the aortic arch; type: in vivo, mouse; conditions: 1 mg/kg IV three times a week from 9 weeks of age, normal chow
Method: ApoE deficient mice on a normal chow diet were selected to receive a dose of 1 mg/kg of the 15-mer peptide (SEQ ID NO: 7) by IV tail injection, three times a week over a period of […], beginning at 9 weeks of age and also utilized a control. At 25 weeks, the animals were euthanized, weighed, and then had blood, spleen, and pancreas removed for analysis. The subjects were then perfused through cardiac puncture with 4% paraformaldehyde. Aortic arches were dissected, dehydrated in sucrose gradient and then flash frozen.
FIG. 17 provides an example of the lesser curvature of the aortic arch, defined proximally from the aortic outflow (AO). Of the segments seen in the trichrome stain, an intimal distance of […] was measured distally. The aortic-arch wall area subtended by this 2.5 mm stretch of the intima was calculated for each section of all mice, with maximal area of the inner-aortic-arch wall of each mouse used to compute averages per group. The luminal surface (L), aortic arch (AO), and innominate artery (I) are labelled in this FIG. 17.
Plaque was subdivided based on morphology of early lesions (observable as fatty streaks containing macrophage derived foam cells with varying degrees of lipid accumulation) compared with more advanced fibroatheromas (containing varying degrees of lipid or necrotic core and fibrous caps). […]

[15] = system: ApoE-/- mice; assay: Existing atherosclerotic disease in ApoE-/- mice, plaque cap and core measurements; type: in vivo, mouse; conditions: 1 mg/kg IV once a week for 4 weeks from 20 weeks of age
Method: In this study, six ApoE−/− mice received a normal chow diet from 0 to 20 weeks of age. At 20 weeks of age, three mice were randomly assigned to receive dose of 1 mg/kg of KGYY15 (15-mer-SEQ ID NO:7) by IV tail injection, once a week for a period of 4 weeks. Control mice received vehicle only. After 4 weeks of treatment, animals were euthanized then perfused through cardiac puncture with 4% paraformaldehyde. Aortic arches were dissected in surcrose gradient and flash frozen. Approximately fifty, 8 um longitudinal sections were obtained per mouse. Slides were treated with trichrome stain and analyzed using cellSens software for measurements. Total plaque was measured including 2.5 mm lesser curvature and innominate artery.

[16] = Clot study of whole human blood in the presence of peptide; conditions: dosing levels similar to murine studies
Method: Whole human blood was administered the peptide in accordance with similar dosing levels to those used for murine studies.

[17] = high fat diet 16 weeks, 1 mg/kg IV once a week for 4 weeks
[18] = trichrome staining, Image Pro Plus analysis

In the case of Cc1ccc(C(=O)Nc2ccc(S(=O)(=O)O)c3cc(S(=O)(=O)O)cc(S(=O)(=O)O)c23)cc1NC(=O)c1cccc(NC(=O)Nc2cccc(C(=O)Nc3cc(C(=O)Nc4ccc(S(=O)(=O)O)c5cc(S(=O)(=O)O)cc(S(=O)(=O)O)c45)ccc3C)c2)c1 [suramin], the “CD154-induced proliferation of human B cells” value [1] is given as “prevented”.
With “AKKGYY [KGYY6, 6-mer peptide from CD154]” the “reduction in LDL cholesterol values versus untreated mice” value [2] was > 50%, the “lesion areas, en-face Sudan IV stain” value [3, 17] was “significant reduction” and the “plaque volume (area under the curve, Paigen method)” value [3, 17] was “reduction”. The “plaque composition: collagen” value [3, 18] was “increased”, the “plaque composition: smooth muscle content” value [3, 18] was “reduced” and the “insulin sensitivity compared to controls” value ([4]; 1 mg/kg) was “significantly improved”. The “plasma insulin levels compared to controls” value ([4]; 1 mg/kg) was “lowered”, the “insulin resistance compared to controls” value ([4]; 1 mg/kg weekly I.V.) was “improve” and the “glucose tolerance compared to controls” value ([4]; 1 mg/kg, GTT 1 g/kg glucose i.p. after 6 hours fasting) was “significantly increased”. The “expression of GLUT4 in muscle tissue” value [5] was “increased expression”, the “expression of GLUT4 in white adipose tissue” value [5] was “increase in expression” and the “inflammatory cytokine production of IL2, INFγ, and IL17a” value [6] was “affects”.
With “VLQWAKKGYYTMK [13-mer peptides, 13-mer peptide derived from the CD154 protein]” the “development of diabetes (blood glucose greater than 250 mg/dL for three consecutive days)” value [7] was “significant effects on the development of diabetes”.
For “VLQWAKKGYYTMKSN (VLQWAKKGYYTMKSK) [15-mer peptide, 15-mer peptide derived from the mouse CD154 protein]”, the “development of diabetes (blood glucose greater than 250 mg/dL for three consecutive days)” value [7] was “prevented the onset of diabetes”, the “compromise of the immune system as determined by the CD4/CD8 ratio” value [8] was “did not result in compromise of the immune system” and the “reversal of hyperglycemia in already diabetic mice” value ([9]; 100 ug IV then weekly injections for ten weeks) was “can reverse hyperglycemia”. For the same compound, the “recipients with reversal of hyperglycemia” value ([9]; six NOD mice injected with 100 ug/ml at the onset of diabetes) was 80%, the “return of hyperglycemia after cessation of the treatment” value ([9]; treatment stopped after ten weeks) was ≤ 5 weeks and the “CD40+ T-cells that bind the peptide” value [10] was 90%. For the same compound, the “B cells that bound the peptide” value [11] was 8%, the “peptide binding activity of blood cells, type-I diabetes patients versus non-diabetic controls” value [12] was “higher” and the “insulin granules in the pancreas” value [13] was “preserved insulin granules in the majority of the mice”. The “total area of the 2.5 mm segment of the aortic-arch wall” value [14] was “substantially reduced”, the “total number of plaque (early lesions and advanced plaque)” value [14] was “significantly decreased” and the “average cap width (cap size)” value [15] was “greater”. For the same compound, the “average core width (core size/plaque size)” value [15] was “decreased”, the “cap to core ratio of advanced plaques” value [15] was “reduced” and the “number of individual early plaques and advanced plaques” value [15] was “reduced”. The “clotting of whole human blood” value [16] was “does not modify or change the clotting”.

Reference: patent US12428465B2, “Therapeutic peptides and methods for treating type 2 diabetes” (OP-T LLC, priority 2018, dated 2025)
